Data as given in patent publication US20070065443A1, “Fructoseamine 3 kinase and the formation of collagen and elastin” (priority 2004, published 2007).
Where “and” joins values, the source holds several entries; their conditions need not be identical. Equal entries are not always repeated.

Key:
STZ-diabetic rats = assay: Skin elasticity measurement (vacuum pull to displace skin); type: in vivo, rat; details: 50 mg/kg daily s.c. for eight weeks
Experimental: Experiments were performed to determine the effects of DYN 12 on the loss of skin elasticity associated with diabetes. To this end, two groups of STZ-diabetic rats and two groups of normal rats were subjected to treatment with DYN 12 or saline. One 'group of STZ-diabetic rats (n=9) received daily subcutaneous injections of DYN 12 at 50 mg/kg for eight weeks, as did one group of normal rats (n=6). A group of control diabetic rats (n=10) and a group of normal rats (n=6) received saline instead of DYN 12. One rat was removed from the diabetic DYN 12 group after 2 weeks because its blood glucose readings were inconsistent (too low) with other diabetic rats.
A non-invasive procedure based on CyberDERM, Inc. technology utilizing a skin elasticity measurement device was used to test the effects of DYN 12 treatment on skin elasticity. The procedure provides for non-invasive measurement of skin elasticity based upon the amount of vacuum pull required to displace skin. A suction cup probe is adhered to an area of shaved skin in order to form an airtight seal. Then, a vacuum is applied to the area of the skin inside the suction cup until the skin is displaced past a sensor located inside the probe. Accordingly, the more pressure that is required to displace the skin, the less elastic the skin is.

[1] = Locus of 3-O-methyl sorbitollysine uptake in vivo (tissue, urine, plasma); set-up: species or system rat
Experimental: […] Urine was collected for 3 hours, after which the rats were sacrificed. The tissues to be analyzed were removed and freeze clamped in liquid nitrogen. Perchloric acid extracts of the tissues were used for metabolite analysis. The tissues examined were taken from the brain, heart, muscle, sciatic nerve, spleen, pancreas, liver, and kidney. Plasma was also analyzed.

3DG = assay: Plasma 3DG levels in diabetic and non-diabetic rats treated with 3-O-methyl sorbitollysine; type: in vivo, rat; details: for plasma 3DG level: 50 mg/kg body weight injections, within one week
Experimental: A cohort of twelve diabetic rats was divided into two groups of six. The first group received saline-only injections, and the second received injections of 3-O-methyl sorbitollysine (50 mg/kg body weight) in saline solution. The same procedure was conducted on a cohort of twelve non-diabetic rats.

[2] = Distribution of DYN-12 in plasma, urine and kidney; type: in vivo, rat; details: individual rats, 100 micromols i.p.
Experimental: Rats were injected intraperitoneally with 1 ml of a 100 mM solution of DYN-12 (100 micromols). Urine was collected for 1 hr, and DYN-12 levels measured. After 1 hr the animals were sacrificed and DYN-12 levels measured in both plasma and kidney tissue.

fructoseamine kinase = target: T1, fructoseamine kinase (Homo sapiens, UniProt Q9H479); assay: Fructoseamine kinase inhibition (Ki); type: biochemical
T1 sequence (Q9H479 1-309): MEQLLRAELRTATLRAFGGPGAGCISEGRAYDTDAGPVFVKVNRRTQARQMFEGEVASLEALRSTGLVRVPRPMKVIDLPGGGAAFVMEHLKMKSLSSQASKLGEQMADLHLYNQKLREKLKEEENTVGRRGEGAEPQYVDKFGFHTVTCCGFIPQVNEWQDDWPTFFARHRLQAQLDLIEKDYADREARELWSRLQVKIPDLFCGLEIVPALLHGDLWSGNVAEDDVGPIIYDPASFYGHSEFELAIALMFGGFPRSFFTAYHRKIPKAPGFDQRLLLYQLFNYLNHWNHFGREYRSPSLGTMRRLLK

In the case of COC(C(O)CNCCCCC(N)C(=O)O)C(O)C(O)CO (stereo not drawn) [DYN 12, 3-O-methylsorbitollysine], the “pressure needed to displace the skin” value (STZ-diabetic rats) is reported as 3.2+/−1.2 kPA, the “presence of the compound in plasma” value ([1]; 3 hours after i.p. injection) is reported as “plasma did not” and the “tissue extracts containing the compound” value ([1]; brain, heart, muscle, sciatic nerve, spleen, pancreas, liver, kidney examined, 3 hours) is reported as “only tissue extract found to contain 3-O-methyl sorbitollysine was that of the kidney”. For the same molecule, the “nmols 3OMeSL in kidneys” value ([1]; individual rats, 13500 nmols i.p., 3 hours, listed as 3OMeSL) was 8155 nmols and 3880 nmols and 10071 nmols and 6582 nmols and 5373 nmols and 4833 nmols, the “nmols 3OmeSL in urine” value ([1]; individual rats, 13500 nmols i.p., urine collected 3 hours, listed as 3OMeSL) was 4200 nmols and 1355 nmols and 2940 nmols and 1675 nmols and 1778 nmols and 2360 nmols and the “% 3OMeSL recovered (of injected dose, urine and kidney)” value ([1]; individual rats, 3 hours after i.p. injection, listed as 3OMeSL) was 91.5% and 38.8% and 96.4% and 61.2% and 53.0% and 53.3%. The “total 3OMeSL recovered” value ([1]; individual rats, urine plus kidneys, 3 hours, listed as 3OMeSL) was 12355 nmols and 5235 nmols and 13011 nmols and 8257 nmols and 7151 nmols and 7193 nmols, the “% Reduction of plasma 3DG vs saline only” value (3DG; diabetic rats) was 53% and the “plasma 3DG level” value (3DG; diabetic rats) was 0.44 ± 0.10 µM. For the same molecule, the “% Reduction of plasma 3DG vs saline only” value (3DG; non-diabetic rats) was 43%, the “plasma 3DG level” value (3DG; non-diabetic rats) was 0.13 ± 0.02 µM and the “DYN-12 concentration Kidney” value ([2]; 1 hr) was 6.54 µmol/g and 9.19 µmol/g and 8.21 µmol/g. The “DYN-12 concentration Plasma” value ([2]; 1 hr) was 0.335 µmol/mL and 0.269 µmol/mL and 0.296 µmol/mL, the “DYN-12 concentration Urine” value ([2]; urine collected 1 hr) was 41.99 µmol/mL and 17.81 µmol/mL and 15.03 µmol/mL and the Ki (fructoseamine kinase) was 2 to 3 mM.
